Test results taken from US10034879B2, “Substituted benzaldehyde compounds and methods for their use in increasing tissue oxygenation” (Global Blood Therapeutics, Inc., priority 2011, dated 2018).

Tests used:
[1] = target: T1, purified Hemoglobin S (HbS) (Homo sapiens, UniProt P68871+P69905, E7V); test: Oxygen equilibrium curves (OEC) in purified HbS, HEMOX analyzer, change in p50; type: biochemical; details: 25 μM purified HbS
T1 construct: HbS was purified by a modified procedure; from tissue; host or cells: blood of homozygous sickle cell patients
Experimental: Oxygen equilibrium curves (OEC) in purified Hemoglobin S (HbS) were measured by the change in p50, the partial pressure of oxygen at which the heme binding sites in the HbS sample are 50% saturated with oxygen. HbS was purified by a modified procedure (Antonini and Brunori, 1971; Heomoglobin and Myoglobin in their Reactions with Ligands; North Holland Publishing Company; Amsterdam, London) from blood obtained from homozygous sickle cell patients though the Hemoglobinopathy Center at Children's Hospital Oakland Research Institute (CHORI) with Institutional Review Board approval. Oxygen equilibrium curves were carried out with a HEMOX analyzer, (TCS Scientific, New Hope, Pa.). Five hundred μL of 250 μM purified HbS were diluted into 4.5 mL of HEMOX buffer (30 mM TES, 130 mM NaCl, 5 mM KCl, pH=7.4) resulting in a final hemoglobin concentration of 25 μM. The compounds were added at the final desired concentrations. The mixture was incubated for 45 min at 37° C. and then transferred to the Hemox sample chamber. The samples were saturated with oxygen by flushing with compressed air for 10 minutes. The samples were then flushed with pure nitrogen and the absorbance of deoxy-Hb was recorded as a function of the solution pO2. The oxygen equilibrium data was then fit to the Hill Model to obtain values for p50. The deoxygenation curves for both HbS alone (control) and HbS in the presence of compound were collected with the TCS software. The p50 for purified Hbs was typically 13.8±1.6. Delta p50 values were obtained from the p50 value for control minus the p50 value for HbS treated with compound divided by the p50 value for the control.
The compounds of Table 1 that were where tested in the assay above were all found to have positive delta p50 values. Delta p50% is calculated from [[p50(HbS)−p50(HbS treated with compound)]/p50(HbS)]×100. Table 2 below lists the delta p50% values where + indicates a delta p50% of between 0 and 29 and ++ indicates a delta p50% of 30 or greater. Unless noted otherwise, the compounds in Table 2 were tested at 30 μM.

HbS/A = target: T2, HbS/A (Homo sapiens, UniProt P68871+P69905, E7V); test: Relaxed-to-tense transition assay (R/T assay); type: biochemical; details: compound at 9 μM; 3 μM HbS/A
T2 construct: A mixture of HbS/A was purified from blood; from tissue; host or cells: blood of homozygous sickle cell patients
Experimental: A relaxed-to-tense transition assay (“R/T assay”) was used to determine the ability of substituted benzaldehyde compounds to maintain the high-oxygen affinity relaxed (R) state of hemoglobin under deoxygenated conditions. This ability can be expressed as a “delta R” value (i.e., the change in the time-period of the R state after hemoglobin is treated with a compound, as compared to the period without treatment with the compound). Delta R is the % R to remaining after the compounds treatment compared with no treatment (e.g. if R % without treatment is 8% while with treatment with a target compound is 48% R at 30 μM, then % R is 40% for that compound.
A mixture of HbS/A was purified from blood obtained from homozygous sickle cell patients though the Hemoglobinopathy Center at Children's Hospital Oakland Research Institute (CHORI) with Institutional Review Board approval. HbS/A (at a final concentration of 3 μM) was incubated for 1 hr at 37° C. in presence or absence of compounds in […] potassium phosphate buffer, pH=7.4 and 30 μM 2, 3 diphosphoglycerate (DPG) in 96 well plates in a final volume of 160 μl. Compounds were added at different concentrations (3 μM to 100 μM final concentrations). Plates were covered with a Mylar film. After incubation was completed the Mylar cover was removed and the plates were placed in a Spectrostar Nano plate reader previously heated at 37° C. Five minutes later, N2 (flow rate=20 L/min) was flowed through the spectrophotometer. Spectroscopic measurements (300 nm to 700 nm) were taken every 5 min for 2 hours. Data analysis was performed by using linear regression from the data retrieved for all wavelengths.
Table 4 below lists the delta R values where + indicates a delta R of between 0 and 30, ++ indicates a delta R of between 30 and 50, and +++ indicates a delta R of 50 or greater. Unless noted otherwise, the compounds in Table 2 were tested at 9 μM.

| Compound | delta p50 ([1]; compound at 30 μM) | delta p50 ([1]; compound at 100 μM) | delta R (%) (HbS/A) |
| --- | --- | --- | --- |
| COc1ccc(OCc2cccn3ccnc23)c(C=O)c1 [Compound 1, 2-(imidazo[1,2-a]pyridin-8-ylmethoxy)-5-methoxybenzaldehyde] | ++ (++ indicates a delta p50% of 30 or greater) | – | – |
| N#Cc1ccc(C=O)c(OCc2cccn3ccnc23)c1 [Compound 2, 4-formyl-3-(imidazo[1,2-a]pyridin-8-ylmethoxy)benzonitrile] | + (+ indicates a delta p50% of between 0 and 29) | – | – |
| COc1ccc(C=O)c(OCc2cccn3ccnc23)c1 [Compound 3, 2-(imidazo[1,2-a]pyridin-8-ylmethoxy)-4-methoxybenzaldehyde] | – | + (100 μM) (+ indicates a delta p50% of between 0 and 29) | – |
| COc1ccc(OCc2ccc3nccn3c2)c(C=O)c1 [Compound 4, 2-(imidazo[1,2-a]pyridin-6-ylmethoxy)-5-methoxybenzaldehyde] | + (+ indicates a delta p50% of between 0 and 29) | – | – |
| COc1ccc(OCc2cn3ccccc3n2)c(C=O)c1 [Compound 5, 2-(imidazo[1,2-a]pyridin-2-ylmethoxy)-5-methoxybenzaldehyde] | ++ (++ indicates a delta p50% of 30 or greater) | – | ++ (++ indicates a delta R of between 30 and 50) |
| COc1ccc(C=O)c(OCc2cccn3cncc23)c1 [Compound 6, 2-(imidazo[1,5-a]pyridin-8-ylmethoxy)-4-methoxybenzaldehyde] | – | + (100 μM) (+ indicates a delta p50% of between 0 and 29) | – |
| COc1ccc(OCc2cccn3cncc23)c(C=O)c1 [Compound 7, 2-(imidazo[1,5-a]pyridin-8-ylmethoxy)-5-methoxybenzaldehyde] | ++ (++ indicates a delta p50% of 30 or greater) | – | – |
| COc1ccc(OCc2ccn3ccnc3c2)c(C=O)c1 [Compound 8, 2-(imidazo[1,2-a]pyridin-7-ylmethoxy)-5-methoxybenzaldehyde] | + (+ indicates a delta p50% of between 0 and 29) | – | – |
| COc1ccc(OCc2cnc3ccccn23)c(C=O)c1 [Compound 9, 2-(imidazo[1,2-a]pyridin-3-ylmethoxy)-5-methoxybenzaldehyde] | + (+ indicates a delta p50% of between 0 and 29) | – | – |
| COc1ccc(OCc2cccc3ncccc23)c(C=O)c1 [Compound 10, 5-methoxy-2-(quinolin-5-ylmethoxy)benzaldehyde] | ++ (++ indicates a delta p50% of 30 or greater) | – | ++ (++ indicates a delta R of between 30 and 50) |
| O=Cc1cc(Br)ccc1OCc1cccn2ccnc12 [Compound 11, 5-bromo-2-(imidazo[1,2-a]pyridin-8-ylmethoxy)benzaldehyde] | + (+ indicates a delta p50% of between 0 and 29) | – | – |
| O=Cc1ccc(Cl)cc1OCc1cccn2ccnc12 [Compound 12, 4-chloro-2-(imidazo[1,2-a]pyridin-8-ylmethoxy)benzaldehyde] | – | + (100 μM) (+ indicates a delta p50% of between 0 and 29) | – |
| O=Cc1ccccc1OCc1cccn2ccnc12 [Compound 13, 2-(imidazo[1,2-a]pyridin-8-ylmethoxy)benzaldehyde] | + (+ indicates a delta p50% of between 0 and 29) | – | – |
| O=Cc1ccc(F)cc1OCc1cccn2ccnc12 [Compound 14, 4-fluoro-2-(imidazo[1,2-a]pyridin-8-ylmethoxy)benzaldehyde] | + (+ indicates a delta p50% of between 0 and 29) | – | – |
| COc1cccc(C=O)c1OCc1cccn2ccnc12 [Compound 15, 2-(imidazo[1,2-a]pyridin-8-ylmethoxy)-3-methoxybenzaldehyde] | – | + (100 μM) (+ indicates a delta p50% of between 0 and 29) | – |
| Cc1ccc(OCc2cccn3ccnc23)c(C=O)c1 [Compound 16, 2-(imidazo[1,2-a]pyridin-8-ylmethoxy)-5-methylbenzaldehyde] | + (+ indicates a delta p50% of between 0 and 29) | – | – |
| COc1ccc(OCc2ccnc3[nH]ccc23)c(C=O)c1 [Compound 21, 2-((1H-pyrrolo[2,3-b]pyridin-4-yl)methoxy)-5-methoxybenzaldehyde] | – | + (100 μM) (+ indicates a delta p50% of between 0 and 29) | – |
| COc1ccc(OCc2cccc3c2cnn3C)c(C=O)c1 [Compound 23, 5-methoxy-2-((1-methyl-1H-indazol-4-yl)methoxy)benzaldehyde] | ++ (++ indicates a delta p50% of 30 or greater) | – | – |
| COc1ccc(OCc2cn3cccc(C)c3n2)c(C=O)c1 [Compound 24, 5-methoxy-2-((8-methylimidazo[1,2-a]pyridin-2-yl)methoxy)benzaldehyde] | ++ (++ indicates a delta p50% of 30 or greater) | – | + (+ indicates a delta R of between 0 and 30) |
| COc1ccc(OCc2cccc3[nH]ncc23)c(C=O)c1 [Compound 25, 2-((1H-indazol-4-yl)methoxy)-5-methoxybenzaldehyde] | ++ (++ indicates a delta p50% of 30 or greater) | – | ++ (++ indicates a delta R of between 30 and 50) |
| COc1ccc(OCc2ccc3cnccn23)c(C=O)c1 [Compound 33, 5-methoxy-2-(pyrrolo[1,2-a]pyrazin-6-ylmethoxy)benzaldehyde] | – | + (100 μM) (+ indicates a delta p50% of between 0 and 29) | – |
| COc1ccc(OCc2ccc3cncn3c2)c(C=O)c1 [Compound 34, 2-(imidazo[1,5-a]pyridin-6-ylmethoxy)-5-methoxybenzaldehyde] | + (+ indicates a delta p50% of between 0 and 29) | – | – |
| N#Cc1ccc(OCc2cccn3ccnc23)c(C=O)c1 [Compound 35, 3-formyl-4-(imidazo[1,2-a]pyridin-8-ylmethoxy)benzonitrile] | + (+ indicates a delta p50% of between 0 and 29) | – | – |
| COc1ccc(OCc2cccc3nccn23)c(C=O)c1 [Compound 37, 2-(imidazo[1,2-a]pyridin-5-ylmethoxy)-5-methoxybenzaldehyde] | + (+ indicates a delta p50% of between 0 and 29) | – | – |
| COc1ccc(NC(=O)c2cccn3ccnc23)c(C=O)c1 [Compound 38, N-(2-formyl-4-methoxyphenyl)imidazo[1,2-a]pyridine-8-carboxamide] | – | ++ (100 μM) (++ indicates a delta p50% of 30 or greater) | – |
| O=Cc1ccccc1NC(=O)c1cccn2ccnc12 [Compound 39, N-(2-formylphenyl)imidazo[1,2-a]pyridine-8-carboxamide] | – | + (100 μM) (+ indicates a delta p50% of between 0 and 29) | – |
| O=Cc1ccccc1C(=O)Nc1cccn2ccnc12 [Compound 40, 2-formyl-N-(imidazo[1,2-a]pyridin-8-yl)benzamide] | + (+ indicates a delta p50% of between 0 and 29) | – | – |
| COc1ccc(OCc2cccnc2)c(C=O)c1 [Compound 41, 5-methoxy-2-(pyridin-3-ylmethoxy)benzaldehyde] | – | – | + (+ indicates a delta R of between 0 and 30) |
